In test [1] the target is T1, Zinc finger protein mex-5 (Caenorhabditis elegans, UniProt Q9XUB2).
T1 sequence (Q9XUB2 whole entry): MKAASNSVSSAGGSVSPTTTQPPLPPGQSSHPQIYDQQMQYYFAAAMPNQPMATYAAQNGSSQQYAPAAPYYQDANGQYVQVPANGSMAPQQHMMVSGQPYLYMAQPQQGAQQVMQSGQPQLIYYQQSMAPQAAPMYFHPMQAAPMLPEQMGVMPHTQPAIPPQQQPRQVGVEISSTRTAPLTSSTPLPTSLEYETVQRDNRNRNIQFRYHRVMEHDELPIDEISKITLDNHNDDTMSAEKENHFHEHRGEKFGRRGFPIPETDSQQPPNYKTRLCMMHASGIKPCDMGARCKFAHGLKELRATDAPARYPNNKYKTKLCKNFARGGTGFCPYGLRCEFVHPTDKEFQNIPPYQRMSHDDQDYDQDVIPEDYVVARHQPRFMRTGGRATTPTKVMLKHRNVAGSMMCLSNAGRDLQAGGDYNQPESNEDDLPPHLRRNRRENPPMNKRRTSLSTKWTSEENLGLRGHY
The test is described as follows: potency of MEX-5 RNA-binding blockers – biochemical, C. elegans, fluorescence polarization, dose response (AID 1960).

For test [2], the target named is T2, RNA-binding protein pos-1 (Caenorhabditis elegans, UniProt G5EF15).
T2 sequence (G5EF15 whole entry): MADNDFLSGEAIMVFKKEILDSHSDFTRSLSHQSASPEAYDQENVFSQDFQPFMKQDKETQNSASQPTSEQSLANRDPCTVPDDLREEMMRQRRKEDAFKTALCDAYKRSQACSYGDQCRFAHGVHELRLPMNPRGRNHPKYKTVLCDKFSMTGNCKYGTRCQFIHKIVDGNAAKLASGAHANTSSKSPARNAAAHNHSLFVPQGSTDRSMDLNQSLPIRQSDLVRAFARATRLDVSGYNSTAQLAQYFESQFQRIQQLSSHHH
Briefly: disruptors of C. elegans POS-1 RNA interaction – biochemical, fluorescence polarization, dose response (AID 1964).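 Further: purified POS-1 fused to maltose binding protein made in E. coli; potency of compounds blocking POS-1 binding to fluorescent RNA.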

The target of test [3] is T3, Heat shock factor protein 1 (Mus musculus, UniProt P38532).
T3 sequence (P38532 whole entry): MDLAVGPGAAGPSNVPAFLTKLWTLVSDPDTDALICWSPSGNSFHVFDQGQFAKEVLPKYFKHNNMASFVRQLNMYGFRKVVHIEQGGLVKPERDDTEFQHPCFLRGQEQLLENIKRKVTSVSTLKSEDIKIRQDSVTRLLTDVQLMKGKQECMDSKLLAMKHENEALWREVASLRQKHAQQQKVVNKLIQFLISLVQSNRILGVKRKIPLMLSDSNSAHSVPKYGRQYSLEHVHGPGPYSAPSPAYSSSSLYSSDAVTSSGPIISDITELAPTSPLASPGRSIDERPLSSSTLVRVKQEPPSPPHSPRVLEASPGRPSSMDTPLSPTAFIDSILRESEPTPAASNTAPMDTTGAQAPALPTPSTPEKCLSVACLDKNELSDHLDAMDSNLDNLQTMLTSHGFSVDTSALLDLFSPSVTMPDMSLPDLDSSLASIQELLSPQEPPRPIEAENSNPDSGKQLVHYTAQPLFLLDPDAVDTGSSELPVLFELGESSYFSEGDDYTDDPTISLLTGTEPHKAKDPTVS
Briefly: enhancement of HSF1-driven luciferase signal – cell-based, NIH3T3, luminescence, dose retest, confirmation (AID 435004).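 Further: stress induced by proteasome inhibitor MG132 added 30 min after compound; luciferase reporter driven by HSF1 response element in NIH3T3 cells; actives raise luminescence as potentiators of the MG132 stress response.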 It counts as functional.

A short description of test [4]: luciferase reporter signal suppression in cells – H4 neuroglioma cells, luminescence, dose response (AID 1990). It counts as functional, cell-based. Background: In a reporter assay the amount or activity of a reporter protein is the signal.
A short description of test [5]: Luminescence Cell-Based Dose Response HTS to Identify Inhibitors of 5'UTR Stem-Loop Driven Prion Protein mRNA Translation in H4 Neuroglioblastoma Cells. [Related pubchem assays: 1827 (Project Summary), 1813 (Primary HTS)]. The class given is functional.
Test [6] is described as follows: alpha-synuclein stem-loop luciferase translation blockers – H4 neuroglioma cells, luminescence, confirmation (AID 1988). It counts as functional, cell-based.
Test [7] is described as follows: Trypanosoma cruzi growth suppression in host cells – NIH3T3 host cells, beta-gal luminescence, confirmation (AID 2044).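 Further: intracellular parasites grown in NIH/3T3 mouse fibroblasts as host cells; luminescent beta-galactosidase reporter signal from transgenic T. cruzi replicating inside host cells; inhibitors lower the luminescence signal.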 The class given is functional, cell-based.
Test [8] can be described thus: NIH3T3 cell viability loss – ATP luminescence, mouse fibroblasts, counter-screen, dose response (AID 2010).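 Further: cells exposed to compound for about 90 hours before reading.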 It counts as functional, cell-based. In general terms: A counterscreen serves to expose hits that act by an unwanted route or on another target.
The nature of test [9]: Luminescence Cell-Based Dose Retest to Confirm Inhibitors of Cancer Stem Cells. [Related pubchem assays (depositor defined):AID2717, AID2721]. The class given is functional, Homo sapiens. The following applies: Homo sapiens.
Test [10] is described as follows: NIH-3T3 fibroblast cytotoxicity, dose response, cytotoxicity control, cell-based, fluorescence, Alamar Blue, secondary assay (AID 2327).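 Further: NIH-3T3 mouse fibroblasts cultured with fluconazole at 8 µg/mL.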 The class given is functional. Background: Alamar Blue is a resazurin reagent that responds to reducing activity.
Test [11] can be described thus: fluconazole-exposed Candida albicans growth modulators – fluorescence, retest, confirmation (AID 2467). It counts as functional, cell-based.
For test [12], the target named is T4, Streptokinase A (Streptococcus pyogenes serotype M1, UniProt P10520).
T4 sequence (P10520 whole entry): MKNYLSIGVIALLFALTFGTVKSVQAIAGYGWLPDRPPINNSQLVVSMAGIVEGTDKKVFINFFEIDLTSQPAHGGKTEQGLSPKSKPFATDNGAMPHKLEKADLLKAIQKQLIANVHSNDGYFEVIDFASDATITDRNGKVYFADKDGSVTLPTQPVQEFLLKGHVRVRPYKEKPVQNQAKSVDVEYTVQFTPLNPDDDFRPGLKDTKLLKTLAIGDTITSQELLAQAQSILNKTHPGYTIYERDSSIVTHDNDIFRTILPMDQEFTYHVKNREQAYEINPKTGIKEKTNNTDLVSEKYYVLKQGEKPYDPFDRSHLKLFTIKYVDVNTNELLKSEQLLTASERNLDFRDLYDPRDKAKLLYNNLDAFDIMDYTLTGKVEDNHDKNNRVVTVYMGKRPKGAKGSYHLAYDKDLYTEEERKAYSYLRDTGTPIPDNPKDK
The test is described as follows: viability-normalized secreted streptokinase activity reduction – plasminogen activation absorbance, OD405, dose response (AID 1914).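 Further: secreted streptokinase activity via plasminogen activation per viability signal from cell pellet.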 It counts as functional, Streptococcus pyogenes M1 GAS.

The test system of test [13] is Streptococcus. Briefly: GAS UMAA2166 growth inhibition – luminescence, BacTiterGlo, counter-screen for streptokinase expression inhibitor project, dose response (AID 1915).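 Further: potency for reduction of bacterial viability or growth.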 The class given is functional, organism-based.
The subject of test [14] is Streptococcus sp. 'group A'. Briefly: Streptococcus pyogenes SK(-)GAS viability under kanamycin – luminescence, BacTiterGlo, confirmation, counter-screen for streptokinase expression inhibitor project, dose response (AID 1900). The class given is functional, organism-based.

Structures are written as SMILES. The source made the active and inactive calls. For most assays here, no stated cut-off is given here; in the data, actives have a measured EC50 and inactives only a lower limit. Some results are limits rather than exact numbers.
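Wherever AC50 is given: cells exposed to compound for roughly 70 hours or longer before luminescence read.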

By EC50 is commonly meant the concentration that produces a half-maximal response. On to `CC(C)CNC(=O)C1Nc2ccc(C(F)(F)F)cc2C2C=CCC12` (stereo not drawn), for which the EC50 in [1] and in test [2] was > 300 µM (not active) throughout.
Turning to `Clc1cccc(CN2CCN(Cc3nc(CCc4ccccc4)no3)CC2)c1`, the EC50 in test [3] was > 260 µM (inactive); in [4], > 120 µM (not active); in [5], 32.3 µM (active); in test [6], > 120 µM (not active).
By AC50 is commonly meant the concentration giving half of the maximal activity seen. As for `O=C(NCCc1c[nH]c2ccccc12)C1CCC(Cn2c(=S)[nH]c3ccccc3c2=O)CC1` (stereo not drawn), the EC50 is 1.07 µM (active) in test [7]; 16.9 µM (active) in test [4]; > 60 µM (not active) in test [8]; > 120 µM (not active) in test [5]; 32.1 µM (active) in [6]. Also, the AC50 in test [9] is 0.582 µM (active).
As for `Cc1n[nH]c(C)c1CCNCc1ccc(OCC(O)CN2CCCCC2)cc1` (stereo not drawn), the EC50 in test [10] is > 150 µM (inconclusive); in [11] it was > 38 µM (not active).
As for `N#Cc1c(NC(=O)/C=C/C(=O)O)sc2c1CCN(Cc1ccccc1)C2`, the EC50 in test [1] was 25.5 µM (active); in test [2], 31 µM (active).
Consider `Cc1cccc(/N=N/c2c(C)[nH]n(C(N)=S)c2=O)c1C`, for which the EC50 in [10] is > 150 µM (inactive); in test [11] it was 3.07 µM (active).
As for `COC(=O)c1cc(C(=O)OC)cc(-n2c(C)cc(C(=O)COC(=O)CNS(=O)(=O)c3ccc(C)cc3)c2C)c1`, the EC50 in test [1] and in test [2] was > 300 µM (not active) each time.
Turning to `COc1cc(C2C(C#N)=C(N)OC3=C2C(=O)CCC3)cc2c1OCO2` (stereo not drawn), the EC50 in [1] and in test [2] was > 300 µM (not active) each time.
On to `C=CCn1c(Cc2nc3ccccc3[nH]2)n[nH]c1=S`, for which the concentration giving a half-maximal response (EC50) is 1.1 µM (active) in test [1] and 80.2 µM (active) in test [2].
Regarding `CC(=O)C(=NNc1nc2c([nH]1)c(=O)n(C)c(=O)n2C)C(C)=O`, the EC50 was 12.7 µM (active) in [1] and 73.9 µM (active) in test [2].
Consider `N=C(N)c1ccc(OCCCCCOc2ccc(C(=N)N)cc2)cc1`, for which the EC50 is 27.9 µM (active) in test [12]; < 0.06 µM (active) in [13]; 11.5 µM (active) in test [4]; 10.9 µM (active) in test [5]; 9.9 µM (active) in test [6]; < 0.06 µM (active) in test [14].
Regarding `CCOC(=O)C1Nc2ccc(C)cc2C2C=CCC12` (stereo not drawn), the half-maximal effective concentration (EC50) in test [1] and in test [2] was > 300 µM (not active) throughout.
In the case of `Cc1cccc(C)c1NC(=O)COC(=O)c1cccc2c1C(=O)c1ccccc1C2=O`, the EC50 in test [3] is 30.8 µM (active); in test [4] it was 13.9 µM (active); in test [5], 13.3 µM (active); in [6], > 120 µM (not active).
Take `CCN(C(=O)c1cc(Cl)ccc1OC)C1CCCCC1`: the EC50 in test [1] and in test [2] was > 300 µM (not active) each time.
Take `Cc1ccc(N2CC(C(=O)Nc3nnc(SCC(=O)Nc4cc(C)on4)s3)CC2=O)cc1` (stereo not drawn): the 50% effective concentration (EC50) in [4], in test [5] and in test [6] was > 120 µM (not active) in each case.
Turning to `Cc1ccc(C)c(NC(S)=NNC(=O)c2csc(C)c2)c1`, the EC50 in test [10] was 67.2 µM (active); in test [11], 0.947 µM (active).
As for `Cc1ccc(S(=O)(=O)N(C)CC(=O)N/N=C/c2ccc(C)o2)cc1`, the EC50 in test [4], in [5] and in test [6] was > 120 µM (not active) each time.
Consider `CCCCCCCSc1nc(N)cc(O)n1`, for which the EC50 is > 150 µM (inactive) in [10] and 4.49 µM (active) in test [11].
As for `Cc1cc(C)c2c(N)c(C(=O)c3ccc(Cl)cc3Cl)sc2n1`, the values for the EC50 in test [4], in [5] and in test [6] were 12.2 µM (active), 19.4 µM (active) and 13.8 µM (active), respectively.
Consider `COc1ccc(N/C=C2/C(=O)NC(=S)N(Cc3ccccc3)C2=O)c(OC)c1`, for which the results for the EC50 in test [3], in test [1] and in test [2] were 2.74 µM (active), > 300 µM (inconclusive) and > 300 µM (inconclusive), respectively.
With `COc1cccc(N/N=C2/C(=O)Nn3c2nc(C)cc3=O)c1`, the concentration for a half-maximal effect (EC50) in test [1] is < 0.06 µM (inconclusive); in [2], > 300 µM (inconclusive).
As for `Cc1cc(/C=C2\C(=O)NC(=O)N(c3cccc(F)c3)C2=O)c(C)n1-c1ccc(C(=O)O)c(Cl)c1`, the EC50 in test [1] and in [2] was > 300 µM (not active) each time.
`O=C(O)c1cc(-c2ccc(O)cc2)on1`: the EC50 in [10] was > 160 µM (inactive); in test [11], > 38 µM (not active).
For the molecule `O=S(=O)(Nc1ccc(O)c2ccccc12)c1ccc(Br)cc1`, the EC50 in test [1] was 22.9 µM (active); in [2] it was 36 µM (active).
Take `O=c1c([N+](=O)[O-])c[nH]c2nc(-c3ccncc3)nn12`: the EC50 in test [4] is 15.8 µM (active); in [5], 14.2 µM (active); in test [6] it was > 120 µM (not active).
On to `Cc1cccc(NC2=NC(=O)CS2)c1`, for which the EC50 in test [1] and in test [2] was > 300 µM (not active) in each case.
Regarding `O=c1cc(N2CCCCC2)c(-c2ccccc2)nn1Cc1c(Cl)cccc1Cl`, the 50% effective concentration (EC50) was 5.18 µM (active) in test [13]; 14.8 µM (active) in test [4]; > 120 µM (not active) in [5]; > 120 µM (not active) in [6]; 5.65 µM (active) in [14]. Besides, in test [9], the half-maximal activity concentration (AC50) is 4.43 µM (active).
Regarding `O=C(O)c1ccc2c(c1)C1C=CCC1C(c1ccncc1)N2` (stereo not drawn), the EC50 was 24.3 µM (inconclusive) in [1] and 58.5 µM (active) in [2].
Consider `NC(=O)c1sc2nc3c(c(-c4ccc(Cl)cc4)c2c1N)CCCC3`, for which the concentration giving a half-maximal response (EC50) in test [4] is 12.5 µM (active); in test [5] it was > 120 µM (not active); in test [6] it was 12.3 µM (active).
Turning to `O=C(CC12CC3CC(CC(C3)C1)C2)NC(=S)NCc1ccccc1`, the EC50 in test [4] is 13.1 µM (active); in [5] it was 18.4 µM (active); in [6], 16.8 µM (active).

The values above are taken from ChEMBL document CHEMBL1201862, “PubChem BioAssay data set” (2004).
